Marks after values point to notes of the source that are not given here.
Legend:
ACO and mAP2 mRNA = assay: Tissue-specific gene expression (ACO, mAP2) by RT-PCR in rats fed experimental diets; format: in vivo, rat; details: diet 14 days, 1.5% CLA or 0.2% troglitazone, vs control diet
Experimental: Male Zucker fatty (fa/fa) rats and lean littermates (wt) were obtained at six weeks of age from Genetic Models, Inc. (Indianapolis, Ind.). Because the primary aim of the study was to determine the ability of CLA to improve insulin action and prevent the onset of diabetes, all rats were determined normoglycemic prior to assignment to experimental treatments. (The diets are discussed in the subsequent section). After maintaining rats on experimental diets for 14 days, rats were euthanized by CO2 and cervical dislocation and tissues collected, weighed and frozen. RT-PCR was performed as described above. The genes utilized as markers of tissue and subtype specific PPAR activation included Acyl-CoA Oxidase (ACO; found in the liver and induced by PPARα activation), Adipocyte Specific Protein (mAP2; found in adipose tissue and induced by activation of PPARγ) and ACO in the muscle (induced by PPARβ). […] Body weights were measured twice weekly and average food consumption estimated by measuring differences in weight of freshly supplied diet and diet remaining in feeders two days later. […]

Zucker rats = assay: Plasma insulin, triglyceride and free fatty acid concentrations in Zucker rats; format: in vivo, rat; details: fed, diets 14 days
Source text: Diet components were obtained from Dyets, Inc. (Bethlehem, Pa.) and the CLA isomeric mixture (90% pure mixture) from PharmaNutrients, Chicago, Ill. The CLA mixture had the following isomeric distribution: 42% of a composition including cis,trans-9,11 and trans,cis-9,11-octadecadienoic acid; 43.5% trans,cis-10,12-octadecadienoic acid; 1% cis,cis-9,11-octadecadienoic acid; 1% cis,cis-10,12-octadecadienoic acid; and 1.5% of a composition including trans,trans-9,11-octadecadienoic acid and trans,trans-10,12-octadecadienoic acid, all on a weight percent basis. The CLA mixture also included, on a weight percent basis, about 0.5% linoleate, about 5.5% oleate and about 5% other lipids as discussed above. The thiazolidinedione, TZD (Rezulin™, Parke-Davis, Ann Arbor, MI), was used as a positive control for anti-diabetic activity in these studies. Male Zucker fatty (fa/fa) rats and lean littermates (wt) were obtained at six weeks of age from Genetic Models, Inc. (Indianapolis, Ind.). Because the primary aim of the study was to determine the ability of CLA to improve insulin action and prevent the onset of diabetes, all rats were determined normoglycemic prior to assignment to experimental treatments. After maintaining rats on experimental diets for 14 days, rats were euthanized by CO2 and cervical dislocation and blood collected and immediately analyzed for post-prandial glucose concentrations (see below) or placed into heparinized test tubes for plasma analyses as described below. Epididymal fat pads and livers were harvested and weighed. An aliquot of the epididymal fat pad was isolated into buffered saline for glucose transport analyses and the remaining epididymal fat pad and gastrocnemius muscle were isolated, immediately frozen in liquid nitrogen and stored at −80° C. until mRNA and protein analyses were performed. Three isocaloric, experimental diets were formulated according to a modified AIN-76 mixture containing 6.5% (by weight) fat (diet described in American Institute of Nutrition: Report of the American Institute of Nutrition Ad Hoc Committee on Standards for Nutritional Studies, J. Nutr. 107 1340–1348 (1977) but includes 6.5% by weight fat instead of 5% by weight fat). […] Body weights were measured twice weekly and average food consumption estimated by measuring differences in weight of freshly supplied diet and diet remaining in feeders two days later. […] Blood glucose levels were determined using a One Touch glucose meter (Lifescan, Inc.). Plasma insulin levels were determined using commercially available radioimmunoassay kits (Linco Research, St. Charles, Mo.). Plasma nonesterified fatty acids were quantified using a calorimetric kit (Wako). Plasma triglyceride concentrations were determined using a commercially available kit (Sigma Diagnostics, St. Louis, Mo.).

With `Cc1c(C)c2c(c(C)c1O)CCC(C)(COc1ccc(CC3SC(=O)NC3=O)cc1)O2` (centres unmarked) [Troglitazone] the “ACO mRNA expression in tissue with predominantly PPARβ (muscle)” value (ACO and mAP2 mRNA) was “no effect”, the “Free Fatty Acids + S.D.” value (Zucker rats; fa/fa rats) was 0.778 + 0.378^c mMol and the “Plasma Triglycerides ± S.D.” value (Zucker rats; fa/fa rats) was 57.08 ± 12.3^c mg/dl. The “Free Fatty Acids + S.D.” value (Zucker rats; wt (lean) rats) was 1.139 + 0.277^c mMol and the “Plasma Triglycerides ± S.D.” value (Zucker rats; wt (lean) rats) was 61.1 ± 12.1^c mg/dl.
